Results reported in ChEMBL document CHEMBL1134064, “Structure-activity relationship investigations of a potent and selective benzodiazepine oxytocin antagonist” (Bioorg Med Chem Lett, 2001).

Key:
[1] = Volume distribution was determined; format: ADME, organism-based, Canis lupus familiaris; conditions: dog, in vivo
[2] = Plasma clearance was determined; format: ADME, organism-based, Canis lupus familiaris; conditions: dog
Oxytocin receptor = target: T1, Oxytocin receptor (Homo sapiens, UniProt P30559); assay: Inhibition of binding of [3H]oxytocin with human oxytocin receptor
T1 sequence (P30559 whole entry): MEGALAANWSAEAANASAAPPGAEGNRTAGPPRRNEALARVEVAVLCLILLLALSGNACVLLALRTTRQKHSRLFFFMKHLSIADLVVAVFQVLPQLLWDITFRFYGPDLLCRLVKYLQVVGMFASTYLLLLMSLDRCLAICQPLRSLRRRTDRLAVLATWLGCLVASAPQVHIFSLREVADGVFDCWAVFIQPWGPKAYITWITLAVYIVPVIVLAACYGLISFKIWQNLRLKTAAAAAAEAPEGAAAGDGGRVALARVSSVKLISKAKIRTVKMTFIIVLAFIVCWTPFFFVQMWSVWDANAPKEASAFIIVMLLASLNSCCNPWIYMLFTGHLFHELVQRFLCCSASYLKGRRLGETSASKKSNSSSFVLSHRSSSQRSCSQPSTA

[3] = Bioavailability; format: ADME, organism-based, Canis lupus familiaris; conditions: dog, in vivo

SMILES | Vd [1] [L/kg] | clearance [2] [mL/min/kg] | Ki (Oxytocin receptor) [nM] | bioavailability [3] [%]
CC(=O)NC1N=C(c2ccccc2)c2ccccc2N(CC(=O)NCCc2cccc(Cl)c2)C1=O (centres undefined) | 0.4 | 6 | 100 | –
CC(=O)CCCC(=O)NC1N=C(C)c2ccccc2N(CC(=O)N[C@@H](Cc2ccc(Cl)c(Cl)c2)C(N)=O)C1=O (some centres undefined) | – | – | 200 | –
CC(=O)NC1N=C(c2ccccc2)c2ccccc2N(CC(=O)NCCc2ccc(Cl)c(Cl)c2)C1=O (centres undefined) | – | – | 100 | –
CC(=O)CCCC(=O)NC1N=C(c2ccccc2)c2ccccc2N(CC(=O)NC2CCc3ccccc3C2)C1=O (centres undefined) | 0.2 | 0.3 | > 5010 | –
CC(=O)CCCC(=O)NC1N=C(c2ccccc2)c2ccccc2N(CC(=O)NCCCc2cccc(Cl)c2)C1=O (centres undefined) | – | – | 100 | –
CC(=O)CCCC(=O)NC1N=C(c2ccccc2)c2ccccc2N(CC(=O)NCCc2cccc3ccccc23)C1=O (centres undefined) | – | – | 15.8 | –
CC(=O)NC1N=C(c2ccccc2)c2ccccc2N(CC(=O)N[C@@H](Cc2ccc(Cl)c(Cl)c2)C(N)=O)C1=O (some centres undefined) | – | – | 25.1 | –
CC(=O)NC1N=C(c2ccccc2)c2ccccc2N(CC(=O)NCCc2cccc3ccccc23)C1=O (centres undefined) | – | – | 100 | –
CC(=O)CCCC(=O)NC1N=C(c2ccccc2)c2ccccc2N(CC(=O)NCCc2ccccc2Cl)C1=O (centres undefined) | – | – | 200 | –
CC(=O)CCCC(=O)NC1N=C(c2ccccc2)c2ccccc2N(CC(=O)NCCc2ccccc2)C1=O (centres undefined) | – | – | 316 | –
NC(=O)[C@H](Cc1ccc(Cl)c(Cl)c1)NC(=O)CN1C(=O)C(NC(=O)CN2CCOCC2)N=C(c2ccccc2)c2ccccc21 (some centres undefined) | 2.8 | 33 | 39.8 | –
CS(=O)(=O)NC1N=C(c2ccccc2)c2ccccc2N(CC(=O)N[C@@H](Cc2ccc(Cl)c(Cl)c2)C(N)=O)C1=O (some centres undefined) | – | – | 501 | –
CC(=O)CCCC(=O)NC1N=C(C2CCCCC2)c2ccccc2N(CC(=O)N[C@@H](Cc2ccc(Cl)c(Cl)c2)C(N)=O)C1=O (some centres undefined) | – | – | 31.6 | –
CC(=O)CCCC(=O)NC1N=C(c2ccccc2)c2ccccc2N(CC(=O)N[C@@H](CC2CCCCC2)C(N)=O)C1=O (some centres undefined) | – | – | 794 | –
CC(=O)CCCC(=O)NC1N=C(Cn2ccnc2)c2ccccc2N(CC(=O)N[C@@H](Cc2ccc(Cl)c(Cl)c2)C(N)=O)C1=O (some centres undefined) | – | – | 794 | –
CC(=O)CCCC(=O)NC1N=C(c2ccccc2)c2ccccc2N(CC(=O)NCCc2cccc(Cl)c2)C1=O (centres undefined) | 0.3 | 3 | 20 | –
CC(=O)NC1N=C(c2ccccc2)c2ccccc2N(CC(=O)NCc2nc(-c3ccccc3)no2)C1=O (centres undefined) | – | – | 794 | –
CC(=O)CCCC(=O)NC1N=C(c2ccccc2)c2ccccc2N(CC(=O)NCCc2ccc(Cl)c(Cl)c2)C1=O (centres undefined) | 0.2 | 4 | 25.1 | 12
CC(=O)CCCC(=O)NC1N=C(c2ccccc2)c2ccccc2N(CC(=O)N[C@@H](Cc2ccc(Cl)c(Cl)c2)C(N)=O)C1=O (some centres undefined) | 0.6 | 62 | 7.94 | > 20
CC(=O)CCCC(=O)NC1N=C(c2ccccc2)c2ccccc2N(CC(=O)NCCc2ccc3ccccc3c2)C1=O (centres undefined) | – | – | 15.8 | –
CC(=O)NC1N=C(c2ccccc2)c2ccccc2N(CC(=O)NCc2nc(-c3ccc(Cl)c(Cl)c3)cs2)C1=O (centres undefined) | – | – | > 5010 | –
CC(=O)CCCC(=O)NC1N=C(c2ccccc2)c2ccccc2N(CC(=O)NC2=NOC(c3ccccc3)C2)C1=O (centres undefined) | – | – | > 3160 | –
CC(=O)NC1N=C(c2ccccc2)c2ccccc2N(CC(=O)N[C@H](Cc2ccc(Cl)c(Cl)c2)C(N)=O)C1=O (some centres undefined) | – | – | 794 | –
CC(=O)NC1N=C(c2ccccc2)c2ccccc2N(CC(=O)N(C)CCc2cccc(Cl)c2)C1=O (centres undefined) | – | – | 1580 | –
CC(=O)CCCC(=O)NC1N=C(c2ccccc2)c2ccccc2N(CC(=O)N[C@@H](Cc2ccc(F)cc2)C(N)=O)C1=O (some centres undefined) | – | – | 79.4 | –
